In ChEMBL document CHEMBL1221225, “A small molecule that directs differentiation of human ESCs into the pancreatic lineage” (Nat Chem Biol, 2009):
The source made the active and inactive calls. No cut-off for these calls is given here.

How the values were obtained:
HUES8 [1] = assay: Induction of human HUES8 cell differentiation into pancreatic progenitor cell assessed as increase in HNF6 mRNA expression at 300 nM after 4 days by RT-PCR analysis cells pregrown in medium containing Wnt, activin, FGF10, KAAD-cyclopamine and retinoic acid; type: functional, cell-based
HUES8 [2] = assay: Induction of human HUES8 cell differentiation into pancreatic progenitor cell assessed as increase in PROX1 mRNA expression at 300 nM after 4 days by RT-PCR analysis cells pregrown in medium containing Wnt, activin, FGF10, KAAD-cyclopamine and retinoic acid; type: functional, cell-based
[3] = Induction of human GTE cells differentiation into pancreatic lineage assessed as increase in Pdx1-expressing cells at 300 nM after 4 days by immunocytochemistry pregrown in medium with FGF10 and KAAD-cyclopamine (Rvb (DMSO) = 2.8+/-0.6%); type: functional
[4] = Induction of human HUES8 cell differentiation into pancreatic progenitor cell assessed as PTF1A expression in cells pregrown in medium containing Wnt, activin, FGF10, KAAD-cyclopamine and retinoic acid at 300 nM after 4 days by immunocytochemistry relative to control; type: functional
AV3 [5] = assay: Induction of mouse AV3 cell differentiation into pancreatic lineage assessed as increase in ptf1a mRNA expression at 300 nM after 6 days by RT-PCR analysis pretreated with 1000 ng/ml recombinant mouse Nodal for 5 days; type: functional, cell-based
AV3 [6] = assay: Induction of mouse AV3 cell differentiation into pancreatic lineage assessed as increase in Pdx1 mRNA expression at 300 nM after 6 days by RT-PCR analysis pretreated with 1000 ng/ml recombinant mouse Nodal for 5 days; type: functional, cell-based
[7] = Induction of human HUES8 differentiation into pancreatic lineage assessed as increase in amylase/CPA double-positive exocrine cells at 300 nM after 4 days by RT-PCR (reference value: 1.6+/-0.2%); type: functional
[8] = Induction of cell proliferation in human HUES8 Pdx1 expressing cells assessed as expression of Ki67 at 300 nM after 4 days by immunocytochemistry; type: functional
[9] = Induction of insulin production in differentiated human HUES8 cells at 300 nM after 4 days by immunocytochemistry (reference value: 0%); type: functional
Homo sapiens [10] = species: Homo sapiens; assay: Induction of human HUES8 differentiation into definitive endoderm assessed as expression of SOX17 at 300 nM after 3 days by immunocytochemistry in presence of Wnt3a and activin A; type: functional
[11] = Induction of human HUES8 cell differentiation into pancreatic progenitor cell assessed as NKX6.1 expression in cells pregrown in medium containing Wnt, activin, FGF10, KAAD-cyclopamine and retinoic acid at 300 nM after 4 days by immunocytochemistry relative to control; type: functional
[12] = Inhibition of PKC signaling in human HUES8 cells assessed as decrease in Pdx1-expressing cells at 1 uM after 4 days cells pregrown in medium with Wnt3a, activin A, FGF10, KAAD-cyclopamine and retinoic acid in presence of 1 uM BISI by immunocytochemistry (reference value: 26.9+/-2.8%); type: cell-based
Lung = assay: Induction of SOX2 expression in CD1 nude mouse lung at 300 nM after 4 days by fluorescent confocal microscopy; type: functional, tissue-based
AV3 [13] = assay: Induction of mouse AV3 cell differentiation into pancreatic lineage assessed as increase in Foxa2 mRNA expression at 300 nM after 6 days by RT-PCR analysis pretreated with 1000 ng/ml recombinant mouse Nodal for 5 days; type: functional, cell-based
HUES8 [14] = assay: Induction of human HUES8 cell differentiation into pancreatic progenitor cell assessed as increase in HB9 mRNA expression at 300 nM after 4 days by RT-PCR analysis pregrown in medium containing Wnt, activin, FGF10, KAAD-cyclopamine and retinoic acid; type: functional, cell-based
Liver [15] = assay: Induction of Albumin expression in CD1 nude mouse liver at 300 nM after 4 days by fluorescent confocal microscopy; type: functional, tissue-based
Mus musculus [16] = species: Mus musculus; assay: Induction of SOX1 expression in CD1 nude mouse ectoderm at 300 nM after 4 days by fluorescent confocal microscopy; type: functional, tissue-based
Homo sapiens [17] = species: Homo sapiens; assay: Induction of human HUES8 differentiation into pancreatic lineage assessed as increase in somatostatin-producing endocrine cells at 300 nM after 4 days by immunostaining; type: functional
AV3 [18] = assay: Induction of mouse AV3 cell differentiation into pancreatic lineage assessed as increase in Nkx2.2 mRNA expression at 300 nM after 6 days by RT-PCR analysis pretreated with 1000 ng/ml recombinant mouse Nodal for 5 days; type: functional, cell-based
[19] = Induction of human HUES9 cell differentiation into pancreatic lineage assessed as increase in Pdx1-expression in cells pregrown with medium containing Wnt, activin, FGF10, KAAD-cyclopamine and retinoic acid at 1 uM after 4 days by Opera high content screening system; type: functional
Mus musculus [20] = species: Mus musculus; assay: Induction of MYOD expression in CD1 nude mouse mesoderm at 300 nM after 4 days by fluorescent confocal microscopy; type: functional
Intestine [21] = assay: Induction of CDX2 expression in CD1 nude mouse intestine at 300 nM after 4 days by fluorescent confocal microscopy; type: functional, tissue-based
Heart = assay: Induction of ISL1 expression in CD1 nude mouse heart at 300 nM after 4 days by fluorescent confocal microscopy; type: functional, tissue-based
[22] = Induction of human HUES8 differentiation into pancreatic lineage assessed as increase in amylase/CPA double-positive exocrine cells at 300 nM after 4 days by RT-PCR (Rvb (DMSO) = 0.2+/-0.1%); type: functional
[23] = Cytotoxicity against human HUES9 cells at 300 nM; type: cell-based; conditions: hues9, 0.3 µM
[24] = Induction of human HUES9 cell differentiation into pancreatic lineage assessed as increase in Pdx1-expression in cells pregrown with medium containing Wnt, activin, FGF10, KAAD-cyclopamine and retinoic acid at 1 uM after 1 day by Opera high content screening system; type: functional
HUES8 [25] = assay: Induction of human HUES8 cell differentiation into pancreatic progenitor cell assessed as increase in SOX9 mRNA expression at 300 nM after 4 days by RT-PCR analysis cells pregrown in medium containing Wnt, activin, FGF10, KAAD-cyclopamine and retinoic acid; type: functional, cell-based
Homo sapiens [26] = species: Homo sapiens; assay: Induction of C-peptide release in human HUES8 insulin-producing cell at 300 nM after 4 days by ELISA; type: functional
AV3 [27] = assay: Induction of mouse AV3 cell differentiation into pancreatic lineage assessed as increase in Hnf6 mRNA expression at 300 nM after 6 days by RT-PCR analysis pretreated with 1000 ng/ml recombinant mouse Nodal for 5 days; type: functional, cell-based
[28] = Induction of human HUES8 differentiation into pancreatic lineage assessed as increase in DBA-positive exocrine cells at 300 nM after 4 days by RT-PCR (Rvb (DMSO) = 0%); type: functional
Intestine [29] = assay: Induction of FABP2 expression in CD1 nude mouse intestine at 300 nM after 4 days by fluorescent confocal microscopy; type: functional, tissue-based
Liver [30] = assay: Induction of AFP expression in CD1 nude mouse liver at 300 nM after 4 days by fluorescent confocal microscopy; type: functional, tissue-based

For `CC(C)[C@H]1C(=O)N[C@H](CO)Cc2c[nH]c3cccc(c23)N1C` [INDOLACTUM], the Activity (HUES8 [1]) was “Active”, the Activity (HUES8 [2]) was “Active” and the Activity [3] was 21.5%. The Activity [4] was 90.1%, the Activity (AV3 [5]) was “Active” and the Activity (AV3 [6]) was “Active”. The Activity [7] was 22.7%, the Activity [8] was 0.1% and the Activity [9] was 0.5%. For the same compound, the Activity (Homo sapiens [10]) was “inactive”, the Activity [11] was 83.5% and the inhibition [12] was 0.6%. For the same compound, the Activity (Lung) was “inactive”, the Activity (AV3 [13]) was “Active” and the Activity (HUES8 [14]) was “Active”. For the same compound, the Activity (Liver [15]) was “inactive”, the Activity (Mus musculus [16]) was “inactive” and the Activity (Homo sapiens [17]) was “Active”. For the same compound, the Activity (AV3 [18]) was “Active”, the Activity [19] was 10.9% and the Activity (Mus musculus [20]) was “inactive”. For the same compound, the Activity (Intestine [21]) was “inactive”, the Activity (Heart) was “inactive” and the Activity [22] was 22.7%. The Activity [23] was “Non-toxic”, the Activity [24] was 5.3% and the Activity (HUES8 [25]) was “Active”. For the same compound, the Activity (Homo sapiens [26]) was “Active”, the Activity (AV3 [27]) was “Active” and the Activity [28] was 3.6%. The Activity (Intestine [29]) was “inactive” and the Activity (Liver [30]) was “inactive”.
